# What was measured:
# Test in all cases: relative viability (nuclei count vs DMSO), 5 days (fraction); higher = more cells survive
# RO-3306 + Luminespib = compound: C1=CC2=C(C=CC(=C2)C=C3C(=O)NC(=NCC4=CC=CS4)S3)N=C1 [RO-3306] + CCNC(=O)c1noc(-c2cc(C(C)C)c(O)cc2O)c1-c1ccc(CN2CCOCC2)cc1 [Luminespib] (partner 0.01 µM)
# Summary of the method: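 Five library-drug doses in √10 steps were combined with a fixed anchor-drug dose, or a single drug was given alone, by pin tool to lung cancer cell lines in 1536-well plates the day after seeding. Nuclei were stained and counted after 5 days. Relative viability is the nuclei count in treated wells over that in vehicle wells, taken as the median of duplicate plates.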
# RO-3306 = compound: C1=CC2=C(C=CC(=C2)C=C3C(=O)NC(=NCC4=CC=CS4)S3)N=C1 [RO-3306]
# Summary of the method: (§1)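 Following overnight incubation at 37 °C, lung cancer cell lines in 1536-well plates were pinned with five library-drug doses (not always all listed) in √10 steps on vehicle-anchored plates. The cells then spent 5 days without medium change before a combined fix, permeabilisation and Hoechst stain, 4× imaging and MetaXpress nuclear counts. Viability is the treated-to-vehicle ratio of nuclei, taken as the median across plates. Only plates with control CV below 25% and at least one doubling passed.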
# [1] = compound: O=S(=O)(c1ccccc1)N(CC(F)(F)F)c1ccc(C(O)(C(F)(F)F)C(F)(F)F)cc1
# Summary of the method: as §1
# Foretinib = compound: COc1cc2c(Oc3ccc(NC(=O)C4(C(=O)Nc5ccc(F)cc5)CC4)cc3F)ccnc2cc1OCCCN1CCOCC1 [Foretinib] (anchor plate); settings: 0.25 µM
# Summary of the method: as §1
cell line,measurement,setting,value
UMC-11,relative viability,RO-3306 + Luminespib; first compound 0.01 µM,0.955
same,relative viability,RO-3306 + Luminespib; first compound 0.03162 µM,0.908
same,relative viability,RO-3306 + Luminespib; first compound 0.1 µM,1.05
same,relative viability,RO-3306 + Luminespib; first compound 0.3162 µM,1.08
same,relative viability,RO-3306 + Luminespib; first compound 1 µM,1.06
same,relative viability,RO-3306; 0.01 µM,1.09
same,relative viability,RO-3306; 0.03162 µM,0.855
same,relative viability,RO-3306; 0.1 µM,0.969
same,relative viability,RO-3306; 0.3162 µM,1.05
same,relative viability,RO-3306; 1 µM,0.828
same,relative viability,[1]; 0.8 µM,1.06
same,relative viability,[1]; 2.53 µM,0.985
same,relative viability,[1]; 8 µM,1.11
same,relative viability,Foretinib,1.03

# — the supplement of paper PMC10307832
